According to PMC7876056, “Population Pharmacokinetic Analysis of Yimitasvir in Chinese Healthy Volunteers and Patients With Chronic Hepatitis C Virus Infection” (Frontiers in Pharmacology, 2021):
Where two headings read alike, the source gives them in different places.

Legend:
[1] = Simulation of steady state exposure from the final population PK model (sensitive plot); type: in vivo, human; conditions: for AUC / Cmax: human, plasma, oral, 100 mg, 100 mg once daily for 12 weeks
Description: Individual empirical Bayes estimates PK parameters from the final model were used to predict the steady state exposure of yimitasvir. The simulated dosing regimen was yimitasvir 100 mg once daily for 12 consecutive weeks. […] The steady state exposure was calculated using PK parameters with incorporation of the isolated effect from the covariate and with other unaffected PK parameters fixed to the typical value.

[2] = Phase 1b study in patients with chronic HCV genotype 1 infection; type: in vivo, human; conditions: evening after dinner for more than 4 h
Description: Yimitasvir is a novel, oral HCV non-structural protein 5A (NS5A) inhibitor for the treatment of chronic HCV genotype 1 infection in combination with sofosbuvir. The pharmacokinetic profile of yimitasvir has been evaluated in healthy volunteers and patients with chronic HCV infection ([Zhang et al., 2018]; [Zhao et al., 2019]). Following fasted single oral dose of yimitasvir in healthy volunteers, yimitasvir was absorbed with a peak concentration (Cmax) 3.5–4.0 h post-dose. […] Yimitasvir was approximately 79.2–86.6% bound to human plasma proteins and the binding was independent of drug concentration over the range of 100–2000 ng ml^−1. No metabolism of yimitasvir was detected in vitro during incubations with hepatic microsomes from mice, rats, dogs, monkeys and humans. […] Steady state was achieved by day 5 following the once daily dosing regimen. […] Yimitasvir is a substrate and inhibitor of the drug transporter P-glycoprotein (P-gp).
The current population PK analysis of yimitasvir was performed using rich and sparse PK samples collected from six clinical pharmacology trials [4 phase 1 ([Zhao et al., 2019]), 1 phase 1b ([Zhang et al., 2018]) and 1 phase 2 studies] in Chinese healthy volunteers and HCV-infected patients. […]

[3] = cited from earlier work
[4] = design: method as in Zhang et al., 2018; conditions: patients, ref Zhang et al., 2018, cited from earlier work
human plasma proteins = conditions: independent of drug concentration over 100–2000 ng ml^−1; cited from earlier work
[5] = monkeys; cited from earlier work
[6] = humans; cited from earlier work
P-glycoprotein (P-gp) = conditions: cited from earlier work
[7] = tested on: cytochrome P450 (CYP) 2C8; conditions: cited from earlier work
CYP 2B6 = conditions: cited from earlier work
CYP 2C9 = conditions: cited from earlier work
CYP 2D6 = conditions: cited from earlier work
CYP 3A4 = conditions: cited from earlier work
[8] = cited from earlier work; remark: listed apart in the source
[9] = in the evening after dinner more than 4 h
[10] = high-fat meal, food effect study, ref Zhao et al., 2019

Decrease in Cmax,ss ([1]; after a high-fat meal, model simulated): 58.9% | AUC ([1]; empirical Bayes estimates, lower end of range, read-out: AUCss, 5th percentile of the population): 3260 ng·h/mL | AUC ([1]; empirical Bayes estimates, upper end of range, read-out: AUCss, 95th percentile of the population): 17400 ng·h/mL | Cmax ([1]; lower end of range, read-out: Cmax,ss, 5th percentile of the population): 182 ng/mL | Cmax ([1]; upper end of range, read-out: Cmax,ss, 95th percentile of the population): 1270 ng/mL | Decrease in AUCss [1, 9]: 28.9% | Decrease in Cmax,ss [1, 9]: 46.1% | Decrease in Ctrough,ss [1, 9]: 10.0% | Steady state exposures (AUCss, Ctrough,ss, Cmax,ss) higher in female than male subjects ([1]; in vivo): 15.1–54.0% | Difference in exposures between patients and healthy volunteers ([1]; steady state): no difference in exposures | Decrease in Ctrough,ss ([1]; with a high-fat meal): 3.52% | AUC decrease compared to phase 1 SAD trial [2]: 40%
SMILES: COC(=O)NC(C(=O)N1CCCC1c1ncc(-c2ccc(-c3ccc(-c4ccc5nc(C6CCCN6C(=O)C(NC(=O)OC)C(C)C)[nH]c5c4)c4c3C3CCC4C3)cc2)[nH]1)C(C)C (centres unmarked) [yimitasvir]
Magnitude of ALT on the steady-state exposure ([1]; healthy volunteers with extreme ALT values (5th and 95th percentiles) relative to typical): ~30% | AUC ([1]; male, typical subject: male, healthy volunteer, fasted 10 h, ALT=31.6 IU l^-1, read-out: AUCss, base): 7250 ng·h/mL | Cmax ([1]; male, typical subject: male, healthy volunteer, fasted 10 h, ALT=31.6 IU l^-1, read-out: Cmax,ss, base): 540 ng/mL | Decrease in AUC [3, 10]: ~50% | Decrease in Cmax [3, 10]: ~63% | Tmax ([3]; high-fat meal, ref Zhao et al., 2019): 5 to 12 h | Terminal half-life (t1/2) ([3]; human, in vivo): 13.4 to 19.7 h | Dose proportionality of exposure ([3]; multiple ascending dose study, 100–400 mg once daily for seven days): less than dose-proportional | Steady state achieved ([3]; once daily dosing regimen): ≤ 5 days | Accumulation ratio ([3]; once daily dosing): 1.32–1.34 | Major route of elimination ([3]; ref Zhao et al., 2019): fecal excretion of parent drug | Dose proportionality of AUC and Cmax ([3]; single ascending dose study, healthy volunteers, ref Zhao et al., 2019): increased less than proportionally | Recovered in urine as the parent drug ([3]; through 7 days post-dose, ref Zhao et al., 2019): Less than 0.04% | Dose proportionality of exposure ([4]; 30 to 200 mg administered during the night (4 h after dinner)): near dose-proportional increase in exposure | Median time to peak concentration (Tmax) ([4]; evening after dinner for more than 4 h): 4 to 12 h | Bound to human plasma proteins (human plasma proteins): 79.2–86.6% | Metabolism in hepatic microsomes [5]: No metabolism | Metabolism in hepatic microsomes [6]: No metabolism | P-gp inhibition (P-glycoprotein (P-gp)): inhibitor | P-gp substrate (P-glycoprotein (P-gp)): substrate | Inhibition of CYP2C8 [7]: weak inhibitor | Inhibition of CYP2B6 (CYP 2B6): does not inhibit | Inhibition of CYP2C9 (CYP 2C9): does not inhibit | Inhibition of CYP2D6 (CYP 2D6): does not inhibit | Inhibition of CYP3A4 (CYP 3A4): does not inhibit | Solubility profile [8]: pH-dependent solubility profile
